This is an account of results in patent US20250320471A1, “Method for Producing Compounds, Method for Producing Compound Library, Compound Library, and Screening Method” (The University of Tokyo, priority 2021, published 2025).

Like-named read-outs stand apart in the source and are kept apart here.

In data set [1] the test system is LynF. Particulars: Tyr C5 O-prenylation; cited from earlier work.
The subject of data set [2] is LimF. The data set is described as follows: LimF prenylation of His monomers and His-containing dipeptides. The data set is classed as biochemical, Limnothrix sp. CACIAM 69d. As to conditions: prenyl group donor GPP; 100 μM LimF, 20 hours. The procedure: The optimization conditions were as follows: 1 mM GPP, 40 mM MgCl2, 1 mM dithiothreitol (DTT), pH 7.2, and reaction temperature 25° C. The reaction conditions described above were used below except where otherwise stated.
• A reaction was performed for 20 hours with 100 μM LimF.
Furthermore, when a prenylation reaction facilitated by 20 μM LimF was applied not only to Ac-AH-NH2, but also to various His-containing dipeptides, it became clear that a His prenylation reaction facilitated by LimF progressed for various His-containing dipeptides (FIG. 6).

A further data set concerns the target T1, GLP1R (Homo sapiens, UniProt P43220).
T1 construct: host or cells: CHO-K1
The data set is described as follows: cAMP production activation test (cAMP Hunter eXpress GLP1R CHO-K1 GPCR assay kit). Particulars: GLP1R CHO-K1 cells. It counts as cell-based. The procedure: The concentration range of the used peptides was from 0.33 μM to 20 nM.
(In general: cAMP levels reflect the balance of adenylyl cyclase and phosphodiesterase activity.)

For data set [3], the system named is LimF. In words: Prenylation of high molecular weight proteins by LimF (MALDI-TOF-MS). The data set is classed as biochemical, Limnothrix sp. CACIAM 69d. As to conditions: 10 μM protein, 10 μM LimF, 2 mM GPP, 20 hours. Here is the method: Moreover, His-prenylation by LimF was also performed for two types of high molecular weight proteins (acetylated bovine-derived albumin (Ac-BSA (Wako Pure Chemical Industries)) and horse-derived glutathione-S-transferase (GST (Sigma-Aldrich Japan))). Specifically, 10 μM Ac-BSA or 10 μM GST was reacted for 20 hours in the presence of 10 μM LimF and 2 mM GPP under previously optimized standard conditions. After desalting the reaction solution after the reaction by solid phase extraction (SPE C-TIP (Nikkyo Technos)), using sinapinic acid as a matrix, analysis was performed using a matrix-assisted laser desorption ionization-time-of-flight mass spectrometer (MALDI-TOF-MS, ultrafleXtreme manufactured by Bruker Daltonics).

Data set [4] relates to PagF. Particulars: Tyr C5 O-prenylation; cited from earlier work.
Data set [5] deals with PagF. Particulars: Tyr C5 O-prenylation; cited from earlier work. This is another data set of the same source.
The subject of data set [6] is LynF. Particulars: Tyr C5 O-prenylation; cited from earlier work. The source holds these as a separate data set.
The next data set concerns the target T2, FtmPT2 (Aspergillus fumigatus, UniProt Q4WAX1).
T2 sequence (Q4WAX1 1-427): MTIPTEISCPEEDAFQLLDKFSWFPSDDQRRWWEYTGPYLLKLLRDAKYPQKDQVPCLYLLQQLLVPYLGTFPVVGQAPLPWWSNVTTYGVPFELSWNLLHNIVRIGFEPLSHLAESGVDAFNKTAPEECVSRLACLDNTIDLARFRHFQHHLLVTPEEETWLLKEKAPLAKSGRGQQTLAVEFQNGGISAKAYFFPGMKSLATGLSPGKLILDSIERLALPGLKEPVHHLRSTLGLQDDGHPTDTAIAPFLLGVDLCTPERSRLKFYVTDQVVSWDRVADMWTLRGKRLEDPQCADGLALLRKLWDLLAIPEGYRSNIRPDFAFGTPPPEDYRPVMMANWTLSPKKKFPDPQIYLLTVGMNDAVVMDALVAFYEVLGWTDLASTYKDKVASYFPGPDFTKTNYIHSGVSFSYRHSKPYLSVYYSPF
As to conditions: Aromatic C5 N-prenylation; cited from earlier work.

Data set [7] relates to LimF. The data set is described as follows: His-prenylation of low molecular weight compounds, peptides and proteins by LimF. It counts as biochemical, Limnothrix sp. CACIAM 69d. Particulars: 125 μM substrate, 100 μM LimF, 2 mM GPP, 20 hours, standard conditions. From the text: Next, various low molecular weight compounds, peptides, and proteins, including various compounds that have already been approved as pharmaceuticals, were subjected to His-prenylation facilitated by LimF.

The next data set can be described thus: Serum stability test. Particulars: 5 μM peptide in human serum at 37° C.
In another data set the target is DPP-4 (Homo sapiens, UniProt P27487). The data set is described as follows: DPP-4 digestion test. As to conditions: 5 μM peptide, Tris-Cl pH 8.0, 2.5 ng/L DPP-4, 37° C.
Chain of DPP-4 (P27487 whole entry, species assumed): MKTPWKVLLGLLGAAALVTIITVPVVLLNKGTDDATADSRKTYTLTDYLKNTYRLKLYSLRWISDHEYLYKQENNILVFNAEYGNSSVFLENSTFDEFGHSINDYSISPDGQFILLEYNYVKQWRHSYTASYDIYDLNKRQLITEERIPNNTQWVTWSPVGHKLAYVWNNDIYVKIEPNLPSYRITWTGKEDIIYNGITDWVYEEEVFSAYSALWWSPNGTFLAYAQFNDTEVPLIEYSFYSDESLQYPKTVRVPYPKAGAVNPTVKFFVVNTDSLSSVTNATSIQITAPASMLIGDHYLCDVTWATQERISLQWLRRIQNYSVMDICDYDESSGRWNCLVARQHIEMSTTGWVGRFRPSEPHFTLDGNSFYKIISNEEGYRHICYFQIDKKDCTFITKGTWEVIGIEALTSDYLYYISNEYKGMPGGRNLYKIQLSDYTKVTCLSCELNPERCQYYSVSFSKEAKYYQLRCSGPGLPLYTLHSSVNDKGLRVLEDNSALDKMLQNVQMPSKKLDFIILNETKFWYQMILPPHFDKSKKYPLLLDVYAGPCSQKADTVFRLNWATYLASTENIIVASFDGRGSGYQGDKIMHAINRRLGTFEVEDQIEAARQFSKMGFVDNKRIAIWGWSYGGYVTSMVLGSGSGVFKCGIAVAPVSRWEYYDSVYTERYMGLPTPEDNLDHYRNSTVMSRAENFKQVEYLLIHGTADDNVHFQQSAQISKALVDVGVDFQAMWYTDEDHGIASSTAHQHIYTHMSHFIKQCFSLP
The test system of a further data set is AcyF. As to conditions: Trp C5 N-prenylation; cited from earlier work.
A further data set concerns Vib-PT. Particulars: Aromatic C5 O-prenylation; cited from earlier work.
In another data set the target is T3, bcLimE2.
T3 chain: RYPHEEIP

Another data set has as its target T4, teR6-H5A.
T4 chain: FRGNATYIPC

T1 sequence (P43220 24-463): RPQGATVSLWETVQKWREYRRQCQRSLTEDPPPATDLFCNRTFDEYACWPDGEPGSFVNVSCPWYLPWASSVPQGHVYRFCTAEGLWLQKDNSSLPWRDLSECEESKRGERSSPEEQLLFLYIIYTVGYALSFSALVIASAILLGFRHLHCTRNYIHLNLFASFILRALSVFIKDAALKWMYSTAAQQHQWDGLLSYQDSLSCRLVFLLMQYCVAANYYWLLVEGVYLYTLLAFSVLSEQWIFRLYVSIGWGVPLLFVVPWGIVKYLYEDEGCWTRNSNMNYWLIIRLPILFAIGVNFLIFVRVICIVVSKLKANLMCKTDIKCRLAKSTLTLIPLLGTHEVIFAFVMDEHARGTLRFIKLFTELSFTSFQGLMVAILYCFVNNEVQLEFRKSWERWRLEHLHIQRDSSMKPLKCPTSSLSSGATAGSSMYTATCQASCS
Procedure for DPP-4: After various incubation times, a sample of 4 μL was taken from the reaction system, and the reaction was stopped by adding 4 times the amount (16 L) of a 1% TFA-aqueous solution. After centrifugation at 13,000 rpm for 5 minutes, 1 μL of the supernatant was measured by LC/MS, and the amount of each remaining peptide was quantified.
Procedure for Serum stability test: After various incubation times, a sample of 4 μL was taken from the reaction system, and the reaction was stopped by mixing with an equal amount (4 L) of methanol. After centrifugation at 13,000 rpm for 5 minutes, the supernatant was collected, and after adding 4 times the amount of 1% TFA-aqueous solution, centrifugation was performed for an additional 5 minutes. 1 μL of the obtained supernatant was measured by LC/MS, and the amount of each remaining peptide was quantified.

Usually Km stands for the concentration of substrate that gives half-maximal velocity. As for cyclo[APMPPYP] (head-to-tail cyclized), in the data set on LynF [1], the Kcat is 0.22 min⁻¹ and the Michaelis-Menten constant (Km) is 4.2 mM.
For the molecule Ac-AH-NH2 [Ac—AH—NH2], the “Modification Efficiency %” value with LimF [2] is listed as over 99%.
As for “FAEGTFTSDVSSYLEGGAAKEFIAWLVHGR [GLP-1_H7F/K34H]”, on GLP1R, the “cAMP production activation ability” value is “activity comparable to that of natural GLP-1”.
As to “Ac-BSA: acetylated bovine-derived albumin”, the “number of prenylations by LimF (mass spectrum)” value in the data set on LimF [3] is given as “two locations”.
For `O=C(N[C@@H](Cc1cnc[nH]1)C(=O)O)OCC1c2ccccc2-c2ccccc21` [Fmoc-His, Fmoc-His-OH], in the data set with LimF [2], the “Modification Efficiency %” value was determined as 15.2 ± 0.8%.
On to `N[C@@H](Cc1c[nH]cn1)C(=O)O` [Free His, H-His-OH], for which the “Modification Efficiency %” value with LimF [2] was found to be 34.9 ± 0.7%.
As for cyclo[INPYLYP] (head-to-tail cyclized), in the data set with PagF [4], the Kcat was 7.4 min⁻¹ and the Km was 220 nM.
Take `CC(C)(C)OC(=O)N[C@@H](Cc1ccc(O)cc1)C(=O)O` [N-boc-L-Tyr]: in the data set on PagF [5], the Kcat was 11 min⁻¹ and the Km was 6.2 mM. In addition, in the data set on LynF [6], the Kcat was 1.06 min⁻¹ and the Km was 14 mM.
Regarding `COc1ccc2c3c([nH]c2c1)[C@H](C=C(C)C)N1C(=O)[C@@H]2CCCN2C(=O)[C@]1(O)[C@H]3O` [12,13-dihydroxyfumitremorgin C], on FtmPT2, the Kcat is 1.80 min⁻¹ and the Km was 96 µM.
For `CC[C@H](C)[C@H](NC(=O)C(Cc1ccccc1)NC(=O)[C@H](CCC(=O)O)NCCCCN[C@@H](CCCCN)C(=O)C(=O)[C@H](C)NC(=O)C(CCC(N)=O)NC(=O)CNC(=O)C(CCC(=O)O)NC(=O)[C@H](CC(C)C)NC(=O)C(Cc1ccc(O)cc1)NC(=O)[C@H](CO)NC(=O)C(CO)NCCCCN[C@H](C(=O)C(=O)[C@H](CC(N)=O)NC(=O)C(CO)NC(=O)[C@@H](NC(=O)C(Cc1ccccc1)NC(=O)[C@@H](NC(=O)CNC(=O)[C@H](CCC(=O)O)NC(=O)C(C)NC(=O)[C@@H](N)Cc1cnc[nH]1)[C@@H](C)O)[C@@H](C)O)C(C)C)C(=O)NC(C)C(=O)N[C@@H](Cc1c[nH]c2ccccc12)C(=O)NC(CC(C)C)C(=O)N[C@H](C(=O)NC(CCCCN)C(=O)NCC(=O)C(=O)[C@H](CCCNC(=N)N)NN)C(C)C` (stereo partly shown) [GLP-1, HAEGTFTSDVSSYLEGGAAKEFIAWLVKGR], the “His-prenylation efficiency (LC/MS)” value in the data set with LimF [7] stood at 75%. The “cAMP production activation ability” value on GLP1R is reported as “strongly activated cAMP production”. Besides, the “serum stability (remaining peptide by LC/MS)” value in “Serum stability test” is “rapid degradation”. Besides, the “stability in DPP-4 digestion test (remaining peptide by LC/MS)” value at DPP-4 is “rapid degradation”.
As for “cyclo[TSQIWGSPVP] (head-to-tail cyclized)”, in the data set with AcyF, the Kcat is 9.50 min⁻¹ and the Km was 3.32 mM.
As to `OCc1ccc(O)cc1` [4-hydroxy-benzenemethanol], in the data set with Vib-PT, the Kcat was 0.047 min⁻¹ and the Km is 2.05 mM.

B1: LimF (wild-type) (protein)
chain: MKKRKSSKVFKSTIAPEEKLRYIGNHKQAFDIEPLYPLALFEEFVATTGDCIIECSGKIKQDQLYPARIDLQFSDKHHFHNIHTSIDFLKRAASRTDVNLNLDILATFLAGNFDYSKVQNILAGIDLRQNLGESKLKLFIRIGDYPAKMAVAKHLCNITPESEAMLRSDTLHIGFDFYLDGRSAIELYPELKKDEFNHPFIYNQLKTILSPEALKPLPLCNLFGIGLSPANEANVLYYHLENIEDFLSYFPINDTARRVHDFYLQQEGSRRMWVALSESEMKAGRINNVNLYYSKAFTSQNP
For B1, the Km (mM), steady-state kinetics of His-prenylation with GPP in the data set with bcLimE2 amounted to 0.31 mM. Besides, the Km (mM), steady-state kinetics of Tyr-prenylation with GPP with teR6-H5A is 7.3 mM.
